Reference: US9187463B2, “Polymorph form of 4-{[4-({[4-(2,2,2-trifluoroethoxy)-1,2-benzisoxazol-3-yl]oxy}methyl)piperidin-1-yl]methyl}-tetrahydro-2H-pyran-4-carboxylic acid” (RAQUALIA PHARMA INC., priority 2011, dated 2015)

Experiments:
Format in all cases: physicochemical
[1] = Solid-state stability study (temperature/humidity chamber, Xenon lamp)
Procedure: Solid-state stability study is performed using Nagano Science Constant temperature/humidity control chamber LH-20-11M, LH-21-11M, LTL-200D3CJ-14 or LTX-01. The sample is placed in the chamber and exposed under 25° C./60% RH, 40° C./75% RH and/or irradiated with a Xenon lamp. The crystalline form, thermal behavior, purity and/or weight change of the resultant sample after the exposure or irradiation are evaluated by XRPD, TG/DTA or DSC, HPLC, microbalance analysis, respectively.

[2] = Hygroscopicity study by dynamic vapor sorption (DVS) analysis; conditions: for weight gain %: 25° C., DVS sorption
Procedure: Hygroscopicity study is performed using Surface Measurement Systems DVS-1. The sample is placed on a microbalance in the instrument. After the sample is dried under 0% humidity environment at 25° C., relative humidity is raised to 95% RH at 5% RH increments, maintaining the sample at each step until equilibration had been attained. After completion of the sorption cycle, the sample is dried to 10% RH using the same procedure (desorption cycle). The weight change during the sorption/desorption cycle is monitored, allowing for the hygroscopic nature of the sample to be determined.
In the hygroscopicity study by dynamic vapor sorption (DVS) analysis, Polymorph Form I absorbs less than 0.2 wt % under 90% relative humidity (RH) at 25° C. On the other hand, the white solid disclosed in the prior art WO2006/090224 absorbs 1.2 wt % and 5.5 wt % of water under 85% RH and 90% RH, respectively.

[3] = Thermal polymorph transformation monitored by variable-temperature PXRD; conditions: heating
Procedure: The PXRD analyses are performed using a Rigaku RINT-TTR X-ray powder diffractometer using Cu-Kα radiation. The samples can also be measured under the high/low temperature condition by using the attachment of the variant-temperature sample holder. The instrument is equipped with a fine focus X-ray tube. The tube voltage and amperage are set to 50 kV and 300 mA respectively. The divergence and scattering slits are set at 0.25° and the receiving slit is set at 0.15 mm. Diffracted radiation is detected by a NaI scintillation detector. A theta-two theta continuous scan at 4°/min (step size 0.02°) from 3 to 40 2-Theta° is used. A silicon standard is analyzed to check the machine alignment. Data are collected and analyzed using-Rigaku X-ray system. Samples are prepared for analysis by placing them in an aluminum sample holder that is horizontally rotated at 60 rpm during data acquisition.
Polymorph Form I begins to transform to Polymorph Form II at around 110° C. […]

[4] = 90% relative humidity (RH) at 25° C.

stability compared with white solid of WO2006/090224 [1]	weight gain % ([2]; 75% RH) [%]	weight gain % ([2]; 80% RH) [%]	weight gain % ([2]; 85% RH) [%]	weight gain % ([2]; 90% RH) [%]	water absorbed (DVS) [2, 4]	temperature at which transformation to Polymorph Form II begins [3]	water absorbed (DVS) ([2]; 85% RH) [wt %]	Compound
more stable than white solid	0.15	0.15	0.15	0.18	less than 0.2 wt %	around 110 °C	–	O=C(O)C1(CN2CCC(COc3noc4cccc(OCC(F)(F)F)c34)CC2)CCOCC1 [Polymorph Form I, 4-{[4-({[4-(2,2,2-trifluoroethoxy)-1,2-benzisoxazol-3-yl]oxy}methyl)piperidin-1-yl]methyl}-tetrahydro-2H-pyran-4-carboxylic acid]
more stable than white solid	–	–	–	–	–	–	–	O=C(O)C1(CN2CCC(COc3noc4cccc(OCC(F)(F)F)c34)CC2)CCOCC1 [Polymorph Form II, 4-{[4-({[4-(2,2,2-trifluoroethoxy)-1,2-benzisoxazol-3-yl]oxy}methyl)piperidin-1-yl]methyl}-tetrahydro-2H-pyran-4-carboxylic acid]
–	0.33	0.35	1.2	5.5	5.5 wt %	–	1.2	O=C(O)C1(CN2CCC(COc3noc4cccc(OCC(F)(F)F)c34)CC2)CCOCC1 [White solid disclosed in the prior art WO2006/090224] [4-{[4-({[4-(2,2,2-Trifluoroethoxy)-1,2-benzisoxazol-3-yl]oxy}methyl)piperidin-1-yl]methyl}-tetrahydro-2H-pyran-4-carboxylic acid]
